Each structure is given as a SMILES string. Structures can show the parent of a compound that is named as a salt. Where two headings read alike, the source gives them in different places. Some results are limits rather than exact numbers.

Data set [1] in a line: Particle size of MDMA measured by laser diffraction. The format is physicochemical.
For data set [2] the following is noted: cited from earlier work.
The subject of data set [3] is CYPs. The data set is described as follows: CYP induction and inhibition of CYPs other than CYP2D6.
Data set [4] in a line: Stress-tests of thermal stability of MDMA·HCl. The note with it: 70-80° C.
Data set [5] deals with healthy subjects. As to the kind of experiment: QTc interval, randomized crossover study. It is filed as in vivo, human. The method, then:
The effect of MDMA·HCl on the QTc interval was evaluated in a randomized, crossover study in N healthy subjects.

In data set [6] the test system is healthy individuals. As to the kind of experiment: Study MPKF: safety and tolerability (AEs, laboratory, vital signs). The format is in vivo, human. From the text: (§1) The MPKF was a Phase 1, open-label, randomized sequence, multi-dose, 2-period crossover food effect study in 16 healthy individuals. The MPKF study evaluated plasma concentrations of both MDMA and the active metabolite 3,4-methylenedioxyamphetamine (MDA). Summary PK Parameters of the preliminary data was based on interim analysis are presented in Table 12 Table 12 Table 12, and Table 13 Table 13 Table 13 for MDMA and MDA, respectively.
(§2) Participants remained at the clinical research unit (CRU) for each Dosing Session from the time of check-in on the night before dosing until discharge 48 hours after dosing for collection of serial blood samples for PK analysis and safety monitoring. IMP was administered on Day 1 following the treatment sequence to which the participant was randomized. An additional outpatient visit occurred 72 hours after dosing to collect a final PK sample, commensurate with the expected PK profiles of MDMA and MDA. Safety assessments were also performed at this visit.
(§3) The washout period between Dosing Sessions was at least 14 days. If a participant experienced emesis within 4 hours of administration, they were to be withdrawn from the study and replaced with a new participant. An End of Study Visit was performed 2 to 10 days after the completion of the final Dosing Session 72-hour follow-up. An informal interim analysis was planned to be conducted after at least 5 participants completed at least 1 Dosing Session to examine PK variability.

Data set [7] can be described thus: Forced degradation and storage stability of MDMA·HCl API. It is filed as physicochemical. From the text: The crystalline, anhydrous form (Form 1) of MDMA·HCl is used for clinical development and commercialization purpose.
The long-term chemical stability of MDMA·HCl, Form I appears in FIG. 9 and FIG. 10.

Data set [8] can be described thus: Solubility and permeability of MDMA·HCl.
Data set [9] can be described thus: Study MPKF: plasma pharmacokinetics of MDMA and MDA, single 120 mg MDMA·HCl, fasted/fed. The format is in vivo, human. The note with it: for Vd: read-out: volume of distribution.
Description: as §1
Participants were randomized to receive 1 of 2 conditions before the other: • Fasted Treatment: at least 10 hours of fasting followed by administration of MDMA HCl with 240 mL water. • Fed Treatment: at least 10 hours of fasting followed by a high-fat (approximately 50% of total caloric content of the meal) and high-calorie (approximately 800 to 1000 calories) meal was consumed within 30 minutes prior to IMP administration.
as §2, §3
The API was a white crystalline powder of pharmaceutical quality, made according to current Good Manufacturing Practices (cGMP) for human use.
Participants: Sixteen healthy individuals were recruited for the study.
Intervention: The study was conducted as a Phase 1, open-label, randomized sequence, multi-dose, 2-period crossover food effect study. Each participant received multiple doses of MDMA, and plasma concentrations of both MDMA and the active metabolite MDA were measured.
Sample Collection: Blood samples were collected at various time points up to 72 hours after dosing. The samples were analyzed using validated liquid chromatography-tandem mass spectrometry (LC-MS/MS) methods.
Data Analysis: The summary PK parameters were presented in Table 12 for MDMA and Table 13 for MDA. The data were analyzed using descriptive statistics, and the mean and standard deviation were calculated. The results were compared between the two periods and analyzed for food effects. Statistical analyses were performed using appropriate methods, such as analysis of variance (ANOVA) and paired t-tests. A p-value of less than 0.05 was considered statistically significant.

Data set [10] concerns the target CYP2D6 (Homo sapiens, UniProt P10635). As to the kind of experiment: CYP2D6 inhibition.
For data set [11] the following is noted: paroxetine 20 mg a day for three days; single 100 mg dose of MDMA; cited from earlier work.

Sequence of CYP2D6 (P10635 whole entry): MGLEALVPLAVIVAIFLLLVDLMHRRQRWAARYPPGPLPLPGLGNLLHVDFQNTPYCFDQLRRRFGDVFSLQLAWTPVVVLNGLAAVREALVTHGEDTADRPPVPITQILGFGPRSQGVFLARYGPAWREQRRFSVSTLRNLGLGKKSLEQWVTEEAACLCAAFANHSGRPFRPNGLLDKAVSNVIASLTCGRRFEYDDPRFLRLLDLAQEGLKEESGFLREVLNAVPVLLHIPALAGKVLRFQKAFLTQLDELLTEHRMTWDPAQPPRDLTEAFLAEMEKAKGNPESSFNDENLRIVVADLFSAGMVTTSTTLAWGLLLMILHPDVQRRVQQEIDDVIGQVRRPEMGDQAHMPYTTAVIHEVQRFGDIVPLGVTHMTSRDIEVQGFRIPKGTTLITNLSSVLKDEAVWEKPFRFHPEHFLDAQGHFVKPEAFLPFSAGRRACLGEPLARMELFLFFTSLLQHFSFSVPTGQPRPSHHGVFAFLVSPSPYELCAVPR

In data set [1], `CNC(C)Cc1ccc2c(c1)OCO2.Cl` (stereo not drawn) [CJS194-1] returned a Dv10 of 29.0 μm, a Dv50 of 170 μm and a Dv90 of 342 μm.
In the same order, the values of `CNC(C)Cc1ccc2c(c1)OCO2.Cl` (stereo not drawn) [CJS194-2] are 20.0 μm, 135 μm and 326 μm.
In [1], `CNC(C)Cc1ccc2c(c1)OCO2.Cl` (stereo not drawn) [CJS194-3] showed a Dv10 of 20.9 μm, a Dv50 of 134 μm and a Dv90 of 326 μm.
Consider `CNC(C)Cc1ccc2c(c1)OCO2.Cl` (stereo not drawn) [CJS194-4], for which, in data set [1], the Dv10 is 23.8 μm, the Dv50 came to 161 μm and the Dv90 was found to be 353 μm.
In data set [1], `CNC(C)Cc1ccc2c(c1)OCO2.Cl` (stereo not drawn) [CJS194-5] registered a Dv10 of 23.4 μm, a Dv50 of 151 μm and a Dv90 of 341 μm.
`CNC(C)Cc1ccc2c(c1)OCO2.Cl` (stereo not drawn) [Form III]: the “time to spontaneous conversion to Form I” value in [2] (storage at ambient conditions) is reported as 2.5 weeks.
For the molecule `CNC(C)Cc1ccc2c(c1)OCO2.Cl` (stereo not drawn) [Form I], the “relative stability of Forms I-III” value in data set [2] (polymorphic screening) was “most stable of Forms I-III”.
In [1], `CNC(C)Cc1ccc2c(c1)OCO2.Cl` (stereo not drawn) [Input 201101] gave a Dv10 of 376 μm, a Dv50 of 512 μm and a Dv90 of 844 μm.
Take `CNC(C)Cc1ccc2c(c1)OCO2` (stereo not drawn) [MDMA·HCl, MDMA hydrochloride]: in data set [3], the “induction of CYPs” value is listed as “not an inducer of CYPs”. The “inhibition of CYPs other than CYP2D6” value in [3] (human) is on record as “did not inhibit CYPs other than CYP2D6 in a clinically meaningful manner”. Moreover, the “stability in stress-tests, duration” value in [4] came out at 72 h. Also, the “increase in heart rate” value in [5] (healthy subjects) was over 10 bpm. Also, the QTc prolongation entry in data set [5] (therapeutic dose, totality of nonclinical and clinical data) is “lack of clinically relevant QTc prolongation”. For the same molecule, in data set [6] (fasted session), the “participants with nausea and vomiting” value is given as 12.5%. The “SAEs and AESI” value in [6] (in vivo) is reported as “No SAEs nor AESI were reported”. Besides, in [6] (single dose of 120 mg MDMA HCl), the overall tolerability result was “well tolerated”, the “participants reporting TEAEs” value is on record as 37.5% and the participants with headache stood at 31.3%. For the same molecule, the “time over which long term chemical stability remains constant” value in data set [7] (25 degrees celsius at 60% RH, no change in appearance or increase in degradation products) is recorded as “up to 60 months”. The forced degradation result in data set [7] (7 days (FIG. 8)) was “minimal degradation”. Besides, the “time over which chemical stability is not affected” value in data set [7] (higher humidity and temperature, 40 degrees celsius at 75% RH (FIG. 11)) is reported as “up to 12 months”. The solubility result in [8] is on record as “high”. Moreover, the permeability entry in [8] (not told) is “high”. In data set [9] (high-fat meal vs fasting, single 120 mg MDMA·HCl), the “effect of food on exposure” value is reported as “not affected by food”. Further, the half-life in [9] (human, plasma, oral, 120 mg, single 120 mg dose of MDMA·HCl, fasting, read-out: t1/2 (converted)) is 9 h. Also, in [9] (human, plasma, oral, single 100 mg dose of MDMA·HCl), the Vd was determined as 372 L. Also, in data set [9] (human, plasma, oral, single 120 mg dose of MDMA·HCl), the Vd amounted to 430 L. Moreover, the CYP2D6 inhibition result in data set [10] is reported as “strong CYP2D6 inhibitor”.
Regarding `Fc1ccc([C@@H]2CCNC[C@H]2COc2ccc3c(c2)OCO3)cc1` [Paroxetine, reference compound], in [11], the “increase of AUC0-inf of MDMA” value was 27% and the “increase of Cmax of MDMA” value was 17%.

The values above are taken from patent US20250134855A1, “CO[…] AND METHODS OF USING SAME” (LYKOS THERAPEUTICS, INC., priority 2022, published 2025).
